Laboratory results from paper PMC7658267, “Effects of CYP46A1 Inhibition on Long-Term-Depression in Hippocampal Slices ex vivo and 24S-Hydroxycholesterol Levels in Mice in vivo” (Frontiers in Molecular Neuroscience, 2020).
pIC50: −log10 of the molar value.

How the values were obtained:
CYP46A1 [1] = molecular target: T1, CYP46A1 (Homo sapiens, UniProt Q9Y6A2); test: recombinant human CYP46A1 microsomes, cholesterol to 24-hydroxycholesterol, LC-MS/MS ([…] with testosterone as substrate); type: biochemical
T1 sequence (Q9Y6A2 whole entry): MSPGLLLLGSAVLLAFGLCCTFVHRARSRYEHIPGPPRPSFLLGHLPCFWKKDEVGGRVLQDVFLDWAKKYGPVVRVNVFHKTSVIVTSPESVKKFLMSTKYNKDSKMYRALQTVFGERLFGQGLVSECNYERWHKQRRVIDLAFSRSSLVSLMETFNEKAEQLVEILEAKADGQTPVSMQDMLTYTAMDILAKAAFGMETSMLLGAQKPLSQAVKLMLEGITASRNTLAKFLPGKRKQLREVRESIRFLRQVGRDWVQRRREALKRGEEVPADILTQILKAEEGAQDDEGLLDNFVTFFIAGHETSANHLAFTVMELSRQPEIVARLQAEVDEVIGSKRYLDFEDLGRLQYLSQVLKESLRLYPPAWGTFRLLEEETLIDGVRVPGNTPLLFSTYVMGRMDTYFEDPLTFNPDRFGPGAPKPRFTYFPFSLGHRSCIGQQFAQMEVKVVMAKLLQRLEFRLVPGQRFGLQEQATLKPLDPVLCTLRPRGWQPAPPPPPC

CYP46A1 [2] = molecular target: T1, CYP46A1; test: turnover to 24-hydroxycholesterol by human CYP46A1 microsomes, LC-MS/MS; type: biochemical

| Compound | pIC50 (CYP46A1 [1]) | turnover to 24-hydroxycholesterol by human CYP46A1 microsomes, LC-MS/MS (CYP46A1 [2]) |
| --- | --- | --- |
| C[C@@H](c1ncncc1F)[C@](O)(Cn1cncn1)c1ccc(F)cc1F [Voriconazole] | 4.91 |  |
| CC(C)CCC[C@@H](C)[C@H]1CC[C@H]2[C@@H]3CC=C4C[C@@H](O)CC[C@]4(C)[C@H]3CC[C@]12C [cholesterol] |  | We also developed an in vitro assay using cholesterol as a substrate. |
